Experiment [1] deals with neurofilament light protein (NFL). Kind of experiment: Serum NFL quantification (Simoa NF-Light), murine heart failure model (Example 1). The format is in vivo, mouse. Particulars: 50 μg/kg/day and 500 μg/kg/day, relative to HF-saline. As to the method: Male C57Bl/6J adult mice (Harlan, 8-10 weeks old) were randomly assigned to either the sham control (n=12) or heart failure (HF) group (n=44). All mice prior to surgery were weighed and anesthetized. For the HF mice, myocardial infarction (MI) was induced by ligation of the left coronary artery (LCA). Under anesthesia (2.5% isoflurane in a mixture of air and 02) a thoracotomy was performed at the fourth left intercostal space and the LCA permanently ligated to induce a myocardial infarction (MI). Occlusion of the LCA was confirmed by observing blanching, a slight change in color of the anterior wall of the left ventricle downstream of the ligature. Sham mice underwent the same procedure with the exception of ligating the LCA.
Following 5 weeks post MI surgery, mice were treated for […] with daily subcutaneous injections as follows:
NFL Quantification: Immediately following the final NOR test, mice were sacrificed and serum samples were obtained for NFL quantification using the Simoa™ NF-Light® kit (Quanterix Cat #103186, Lot #501953), which quantifies neurofilament light (NFL). Assay samples were diluted 1:4 and calibrators were undiluted. As samples and calibrators were run in duplicate and analyzed using the HD-X Analyzer software package.

The subject of another experiment is TNFα. Kind of experiment: Plasma cytokines, MILLIPLEX MAP Mouse High Sensitivity Multiplex Immunoassay. The format is in vivo. Particulars: 50 μg/kg/day; values at or below assay threshold represented as 3.12. As to the method: Mice were assigned randomly to the following treatment groups: Control-Saline (sham MI surgery, treated with saline), HF-treated (HF-PNA5, or HF-Ang-(1-7) with either 50 μg/kg/day, or 500 μg/kg/day), or HF-saline. Mice recovered for 5 weeks following MI before receiving 24 days of daily subcutaneous drug treatment. Within the last 3 days of injections, animals underwent Novel Object Recognition (NOR) testing (FIG. 6). […]
Cytokine concentrations were measured in the brain lysates and plasma samples by multiplex immunoassay using a MAGPIX Multiplexing Instrument and accompanying Multiplex Analyst software (MILLIPLEX MAP Mouse Cytokine/Chemokine Magnetic Bead Panel-Immunology Multiplex Assay; MCYTOMAG-70 K; Millipore Sigma, Burlington, Massachusetts). […] All samples were run in duplicate, and the results were analyzed using ANOVA and relevant post using GraphPad Prism9. To create a composite cytokine score, we calculated the z-scores for IL-2, IL-13, and IL-17 brain cytokines. […] The z-score was calculated for each cytokine using the following equation: […]

The next experiment has as its system brain cytokines. Kind of experiment: Whole brain lysate cytokines, MILLIPLEX MAP Mouse High Sensitivity Multiplex Immunoassay. The format is in vivo. As to the method:
Mice were assigned randomly to the following treatment groups: Control-Saline (sham MI surgery, treated with saline), HF-treated (HF-PNA5, or HF-Ang-(1-7) with either 50 μg/kg/day, or 500 μg/kg/day), or HF-saline. Mice recovered for 5 weeks following MI before receiving 24 days of daily subcutaneous drug treatment. Within the last 3 days of injections, animals underwent Novel Object Recognition (NOR) testing (FIG. 6). Animal treatment groups were as listed: heart failure (HF)-saline treated n=15, (HF-Saline), Sham surgery-saline treated n=15 (Control-Saline), HF-Ang-(1-7) at 500 μg/kilogram body weight/day for 24 days (HF-A500) n=15, HF-Ang-(1-7) at 50 μg/kg body weight/day for 24 days (HF-A50) n=15, HF-PNA5 at 500 μg/kilogram body weight/day (HF-P500) n=15, HF-PNA5 at 50 μg/kilogram body weight/day (HF-P50) n=15. Following MI, up to 7 mice died within a group resulting in varying number of mice per group that were available to undergo treatment, NOR testing, and provide serum samples.
Mice were anesthetized with isoflurane and rapidly decapitated. Brains were separated from the skull and quickly cut into two hemispheres. The halves of the brain were then rapidly frozen in corning tubes in liquid nitrogen and stored at −80° C. One half of each brain was lysed using 1 mL RIPA buffer (1% Triton X-100, 0.1% SDS, 1×PBS) with protease (protease inhibitor cocktail 100× [Sigma P8340]) and phosphatase inhibitors (phosphatase inhibitor cocktail 100× [Sigma P5726]). Tissue was then sonicated using an ultrasonic cell disruptor at 30% 40% amplitude for 1 min. Samples were returned to ice in between sonication to prevent the tissue from warming. Samples were then centrifuged at 4° C. or 15 min at 13,000×g. The supernatant was collected and stored at −80° C. Total protein was measured in the range of […]. Brain lysates were used for multiplex immunoassays.
Cytokine concentrations were measured in the brain lysates and plasma samples by multiplex immunoassay using a MAGPIX Multiplexing Instrument and accompanying Multiplex Analyst software (MILLIPLEX MAP Mouse Cytokine/Chemokine Magnetic Bead Panel-Immunology Multiplex Assay; MCYTOMAG-70 K; Millipore Sigma, Burlington, Massachusetts). Simultaneous measurements of granulocyte colony-stimulating factor (GCSF), granulocyte-macrophage colony-stimulating factor, interferon, interleukin (IL)-1a, IL-1B, IL-2, IL-4, IL-5, IL-6, IL-7, IL-9, IL-10, IL-12 (p40), IL-12 (p70), IL-13, IL-15, IL-17, interferon-induced protein 10, chemokine (C-X-C motif) (CXC) ligand 1 (KC), chemokine (C-C motif) ligand (CCL) 2 (monocyte chemoattractant protein-1), CCL3 [macrophage inflammatory protein (MIP) 1a], CCL4 (MIP1b), CXC ligand 2 (MIP2), CCL5 [RANTES (regulated on activation normal T cell expressed and secreted)], and tumor necrosis factor-alpha (TNF-α) were captured. All samples were run in duplicate, and the results were analyzed using ANOVA and relevant post using GraphPad Prism9. To create a composite cytokine score, we calculated the z-scores for IL-2, IL-13, and IL-17 brain cytokines. Z-scores were then added to create a composite cytokine score. The z-score was calculated for each cytokine using the following equation: […]

The subject of experiment [2] is neurofilament light protein (NFL). Kind of experiment: Serum NFL levels in patients undergoing coronary artery bypass grafting (CABG). In kind it is in vivo, human. Particulars: 200 μg/kg/day s.c. for 21 days, vs saline vehicle. The text has this: It is well documented that patients undergoing coronary artery bypass grafting (CABG) tend to experience post-surgical cognitive dysfunction. The present study elucidates the response in serum NFL levels to CABG and how that response may be modulated by Ang-(1-7) treatment. Potential CABG participants underwent a screening visit between 2 and 15 days prior to CABG surgery, including a full medical history and physical examination to rule out dementia (Mini-Mental State Exam score less than 25), and depression (Geriatric Depression Scale score greater than 10). Between 1 and 15 days prior to CABG surgery, participants underwent neuropsychological evaluation including memory testing and blood draws for clinical pathology assessment, NFL biomarker assessment. […] At 21 days post-surgery, additional blood samples were obtained, and serum NFL levels were measured.
The serum NFL concentration was measure in six subjects prior to CABG surgery and in 18 age-matched control subjects. […] Two subjects were administered saline vehicle control. […] Following surgery, serum NFL levels increased about four-fold in the patients treated with saline vehicle compared to pre-surgery level (p=0.0002).

“DRVYIHP [Ang-(1-7), Asp-Arg-Val-Tyr-Ile-His-Pro, Mas receptor agonist]”: the “HF-induced increase in serum NFL levels” value in experiment [1] is “reversed”. Besides, the “plasma TNFα, mean” value in the experiment on TNFα is recorded as 3.12 pg/mL. In the experiment with brain cytokines (50 ug/kg), the “brain IL-1α, mean ± SE” value turned out to be 95.6 ± 8.4 pg/mL; the “brain IL-10 (row head as printed; title says IP-10), mean ± SE” value came out at 42.2 ± 3.2 pg/mL; the “brain IL-17, mean ± SE” value is 44.1 ± 2.8 pg/mL. Besides, in the experiment with brain cytokines (500 ug/kg), the “brain IL-1α, mean ± SE” value worked out at 95.6 ± 5.5 pg/mL; the “brain IL-2, mean ± SE” value worked out at 50.9 ± 1.9 pg/mL; the “brain IL-5, mean ± SE” value was determined as 53.2 ± 2.7 pg/mL; the “brain IL-10 (row head as printed; title says IP-10), mean ± SE” value stood at 43.8 ± 4.2 pg/mL. Further, the “brain IL-17, mean ± SE” value in the experiment with brain cytokines (500 ug/kg) was determined as 42.0 ± 1.1 pg/mL. In addition, in the experiment on brain cytokines (A50 or A500 (50 or 500 ug/kg)), the “brain lysate levels of IL-1α, IL-2, IL-5, IL-13, and IL-17 compared to HF-Saline” value is “significantly increased”. Besides, in experiment [2], the “post-surgical increase in serum NFL” value is on record as “significantly reduced that post-surgical increase”.

For the origin of these results see patent publication US20240012012A1, “BIOMARKER AND TREATMENT FOR VASCULAR COGNITIVE IMPAIRMENT AND RELATED CONDITIONS” (priority 2020, published 2024).
